Results: patent US20170159101A1, “DRUG-RESISTANT P97 ATPASE MUTATIONS” (Cleave Biosciences, Inc., priority 2014, published 2017)

Key:
Test in all cases: Biochemical ATPase assay, mutant p97 vs WT
p97 T688A = target: T1, p97 T688A (Homo sapiens, UniProt P55072, T688A); details: recombinant p97 with T688A mutation
T1 construct: His-tag; made in house; host or cells: E. coli B121[DE3]; (so in the source)
Description: (§1) Proteins were expressed in the B121[DE3] strain of E. coli and purified using His-tag mediated nickel purification and gel filtration chromatography.
(§2) ATPase activity of p97 was measured using an ATP regenerating enzymatic system that couples the conversion of phosphoenolpyruvate (PEP) to pyruvate by pyruvate kinase with ADP conversion to ATP. Pyruvate is then converted to lactate by lactate dehydrogenase, which is coupled to the conversion of NADH to NAD^+. The loss of NADH is measured by a decrease in optical absorbance as […] allowing for real-time measurement of ATPase activity. Dose titrations of a test compound were added to the p97 ATPase assay and ATPase activity was monitored. The rate of ATPase activity was fit to four-parameter sigmoidal curve to calculate IC50 of test compound. IC50 values of test compounds for wild type p97 were compared to IC50 values of mutant proteins to identify fold-changes in the potency of test compounds for mutant p97.

p97 D649A = target: T2, p97 D649A (Homo sapiens, UniProt P55072, D649A); details: recombinant p97 with D649A mutation
T2 construct: His-tag; made in house; host or cells: E. coli B121[DE3]; (so in the source)
T2 sequence (P55072 whole entry D649A): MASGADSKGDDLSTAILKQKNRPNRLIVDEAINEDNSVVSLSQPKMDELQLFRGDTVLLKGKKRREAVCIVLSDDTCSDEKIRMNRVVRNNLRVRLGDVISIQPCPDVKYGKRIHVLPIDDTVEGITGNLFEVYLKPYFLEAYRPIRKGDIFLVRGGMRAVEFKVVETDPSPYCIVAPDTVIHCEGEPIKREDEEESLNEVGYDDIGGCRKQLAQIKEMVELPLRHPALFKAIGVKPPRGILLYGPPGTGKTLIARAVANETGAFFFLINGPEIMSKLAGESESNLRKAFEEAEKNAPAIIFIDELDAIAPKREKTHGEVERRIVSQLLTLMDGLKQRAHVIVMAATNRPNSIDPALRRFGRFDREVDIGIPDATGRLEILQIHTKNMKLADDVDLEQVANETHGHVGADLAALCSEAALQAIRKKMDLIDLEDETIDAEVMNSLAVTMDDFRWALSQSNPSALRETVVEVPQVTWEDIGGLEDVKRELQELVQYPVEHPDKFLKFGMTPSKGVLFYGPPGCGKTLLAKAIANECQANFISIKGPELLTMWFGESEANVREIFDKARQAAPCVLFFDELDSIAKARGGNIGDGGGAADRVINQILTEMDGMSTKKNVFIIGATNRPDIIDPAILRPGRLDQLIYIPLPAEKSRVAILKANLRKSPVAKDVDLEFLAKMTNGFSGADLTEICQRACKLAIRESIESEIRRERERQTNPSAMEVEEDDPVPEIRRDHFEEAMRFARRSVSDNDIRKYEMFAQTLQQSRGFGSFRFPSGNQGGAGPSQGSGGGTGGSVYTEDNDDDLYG
Description: as §1, §2

p97 Q473P = target: T3, p97 Q473P (Homo sapiens, UniProt P55072, Q473P); details: recombinant p97 with Q473P mutation
T3 construct: His-tag; made in house; host or cells: E. coli B121[DE3]; (so in the source)
T3 sequence (P55072 whole entry Q473P): as the sequence (P55072 whole entry D649A) above, with Q473P, A649D counted along it
Description: as §1, §2

p97 G481A = target: T4, p97 G481A (Homo sapiens, UniProt P55072, G481A); details: recombinant p97 with G481A mutation
T4 construct: His-tag; made in house; host or cells: E. coli B121[DE3]; (so in the source)
T4 sequence (P55072 whole entry G481A): as the sequence (P55072 whole entry D649A) above, with G481A, A649D counted along it
Description: as §1, §2

p97 E470D = target: T5, p97 E470D (Homo sapiens, UniProt P55072, E470D); details: recombinant p97 with E470D mutation
T5 construct: His-tag; made in house; host or cells: E. coli B121[DE3]; (so in the source)
T5 sequence (P55072 whole entry E470D): as the sequence (P55072 whole entry D649A) above, with E470D, A649D counted along it
Description: as §1, §2

p97 A659T = target: T6, p97 A659T (Homo sapiens, UniProt P55072, A659T); details: recombinant p97 with A659T mutation
T6 construct: His-tag; made in house; host or cells: E. coli B121[DE3]; (so in the source)
T6 sequence (P55072 whole entry A659T): as the sequence (P55072 whole entry D649A) above, with A649D, A659T counted along it
Description: as §1, §2

T1 sequence (P55072 whole entry T688A): as the sequence (P55072 whole entry D649A) above, with A649D, T688A counted along it

SMILES: COc1nc2c(C(N)=O)cccc2n1-c1nc2c(c(NCc3ccccc3)n1)CCCC2 [Compound 5, 1-[4-(benzylamino)-5,6,7,8-tetrahydroquinazolin-2-yl]-2-methoxy-1H-1,3-benzodiazole-4-carboxamide]
- Fold Change in IC50 compared to WT Protein (p97 T688A): 363.0 fold
- Fold Change in IC50 compared to WT Protein (p97 D649A): 67.0 fold
- Fold Change in IC50 compared to WT Protein (p97 Q473P): 0.3 fold
- Fold Change in IC50 compared to WT Protein (p97 G481A): 4.1 fold
- Fold Change in IC50 compared to WT Protein (p97 E470D): 15.4 fold
- Fold Change in IC50 compared to WT Protein (p97 A659T): 110.0 fold
